Reference: PubChem BioAssay (NCI)
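Test compounds were applied to cells in 96-well plates for 48 hours at 5 doses. Definition used: TGI = concentration required for complete inhibition of growth.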

Tests used:
Assay in all cases: growth of human tumour cells (NCI), 48 h
NCI/ADR-RES ovarian = tested on: NCI/ADR-RES ovarian
A498 renal = tested on: A498 renal
U251 CNS = tested on: U251 CNS
HT29 colon = tested on: HT29 colon
UO-31 renal = tested on: UO-31 renal
MOLT-4 leukemia = tested on: MOLT-4 leukemia
DU-145 prostate = tested on: DU-145 prostate
T-47D breast = tested on: T-47D breast
SW-620 colon = tested on: SW-620 colon
OVCAR-5 ovarian = tested on: OVCAR-5 ovarian
EKVX NSCLC = tested on: EKVX NSCLC
A549 NSCLC = tested on: A549 NSCLC
IGROV1 ovarian = tested on: IGROV1 ovarian
UACC-62 melanoma = tested on: UACC-62 melanoma
SK-MEL-28 melanoma = tested on: SK-MEL-28 melanoma
SF-295 CNS = tested on: SF-295 CNS
CCRF-CEM leukemia = tested on: CCRF-CEM leukemia
OVCAR-8 ovarian = tested on: OVCAR-8 ovarian
SN12C renal = tested on: SN12C renal
NCI-H226 lung = tested on: NCI-H226 lung
786-0 renal = tested on: 786-0 renal
K-562 leukemia = tested on: K-562 leukemia
OVCAR-3 ovarian = tested on: OVCAR-3 ovarian
NCI-H522 lung = tested on: NCI-H522 lung
HCT-15 colon = tested on: HCT-15 colon
PC-3 prostate = tested on: PC-3 prostate
SK-MEL-2 melanoma = tested on: SK-MEL-2 melanoma
COLO 205 colon = tested on: COLO 205 colon
CAKI-1 renal = tested on: CAKI-1 renal
MCF7 breast = tested on: MCF7 breast
HL-60(TB) leukemia = tested on: HL-60(TB) leukemia
RPMI-8226 leukemia = tested on: RPMI-8226 leukemia
MDA-MB-435 = tested on: MDA-MB-435
HOP-92 NSCLC = tested on: HOP-92 NSCLC
LOX IMVI melanoma = tested on: LOX IMVI melanoma
RXF 393 renal = tested on: RXF 393 renal
MDA-MB-231 breast = tested on: MDA-MB-231 breast
BT-549 breast = tested on: BT-549 breast
TK-10 renal = tested on: TK-10 renal
OVCAR-4 ovarian = tested on: OVCAR-4 ovarian
NCI-H23 lung = tested on: NCI-H23 lung
SK-MEL-5 melanoma = tested on: SK-MEL-5 melanoma
SF-268 CNS = tested on: SF-268 CNS
MALME-3M melanoma = tested on: MALME-3M melanoma
HCT-116 colon = tested on: HCT-116 colon
SNB-75 CNS = tested on: SNB-75 CNS
UACC-257 melanoma = tested on: UACC-257 melanoma
SK-OV-3 ovarian = tested on: SK-OV-3 ovarian
KM12 colon = tested on: KM12 colon
NCI-H460 lung = tested on: NCI-H460 lung
HOP-62 NSCLC = tested on: HOP-62 NSCLC
MDA-N = tested on: MDA-N
ACHN renal = tested on: ACHN renal
HCC-2998 colon = tested on: HCC-2998 colon
HS 578T breast = tested on: HS 578T breast
SF-539 CNS = tested on: SF-539 CNS
SR leukemia = tested on: SR leukemia
M14 melanoma = tested on: M14 melanoma
SNB-19 CNS = tested on: SNB-19 CNS

CC(C)(Cl)C(Cl)CC/C(CBr)=C(\Cl)CCl (stereo not drawn)
TGI (NCI/ADR-RES ovarian): 34 µM | TGI (A498 renal): 35.3 µM | TGI (U251 CNS): 16.2 µM | TGI (HT29 colon): 14.7 µM | TGI (UO-31 renal): 17 µM | TGI (MOLT-4 leukemia): 2.63 µM | TGI (DU-145 prostate): 26.7 µM | TGI (T-47D breast): 3.88 µM | TGI (SW-620 colon): 4.12 µM | TGI (OVCAR-5 ovarian): 28.3 µM | TGI (EKVX NSCLC): 31.8 µM | TGI (A549 NSCLC): 34.1 µM | TGI (IGROV1 ovarian): 4.66 µM | TGI (UACC-62 melanoma): 3.79 µM | TGI (SK-MEL-28 melanoma): 8.84 µM | TGI (SF-295 CNS): 30.6 µM | TGI (CCRF-CEM leukemia): 2.95 µM | TGI (OVCAR-8 ovarian): 12.6 µM | TGI (SN12C renal): 9.47 µM | TGI (NCI-H226 lung): 15.3 µM | TGI (786-0 renal): 6.5 µM | TGI (K-562 leukemia): 17.1 µM | TGI (OVCAR-3 ovarian): 12.2 µM | TGI (NCI-H522 lung): 1.88 µM | TGI (HCT-15 colon): 4.35 µM | TGI (PC-3 prostate): 20 µM | TGI (SK-MEL-2 melanoma): 5.32 µM | TGI (COLO 205 colon): 11.1 µM | TGI (CAKI-1 renal): 9.92 µM | TGI (MCF7 breast): 32.1 µM | TGI (HL-60(TB) leukemia): 4.65 µM | TGI (RPMI-8226 leukemia): 4.59 µM | TGI (MDA-MB-435): 8.56 µM | TGI (HOP-92 NSCLC): 23.7 µM | TGI (LOX IMVI melanoma): 1.35 µM | TGI (RXF 393 renal): 23 µM | TGI (MDA-MB-231 breast): 7.28 µM | TGI (BT-549 breast): 3.63 µM | TGI (TK-10 renal): 27.7 µM | TGI (OVCAR-4 ovarian): 7.45 µM | TGI (NCI-H23 lung): 14.4 µM | TGI (SK-MEL-5 melanoma): 6.58 µM | TGI (SF-268 CNS): 29.1 µM | TGI (MALME-3M melanoma): 20.2 µM | TGI (HCT-116 colon): 8.74 µM | TGI (SNB-75 CNS): 14.1 µM | TGI (UACC-257 melanoma): 14 µM | TGI (SK-OV-3 ovarian): 17.9 µM | TGI (KM12 colon): 19.5 µM | TGI (NCI-H460 lung): 28 µM | TGI (HOP-62 NSCLC): 26 µM | TGI (MDA-N): 5.26 µM | TGI (ACHN renal): 28.3 µM | TGI (HCC-2998 colon): 27.7 µM | TGI (HS 578T breast): 25.3 µM | TGI (SF-539 CNS): 15.5 µM | TGI (SR leukemia): 3.31 µM | TGI (M14 melanoma): 3.61 µM | TGI (SNB-19 CNS): 32.7 µM

O=C1C[C@H](Sc2ccccc2)C2(OCCO2)[C@H]2ON3CCC[C@@H]3[C@@H]12
TGI (NCI/ADR-RES ovarian): 30.8 µM | TGI (A498 renal): 27.9 µM | TGI (U251 CNS): 6.66 µM | TGI (HT29 colon): 2.81 µM | TGI (UO-31 renal): 3.61 µM | TGI (MOLT-4 leukemia): 1.85 µM | TGI (DU-145 prostate): 6.95 µM | TGI (T-47D breast): 7.17 µM | TGI (SW-620 colon): 5.82 µM | TGI (OVCAR-5 ovarian): 7.8 µM | TGI (EKVX NSCLC): 9.64 µM | TGI (A549 NSCLC): 13 µM | TGI (IGROV1 ovarian): 2.46 µM | TGI (UACC-62 melanoma): 3.77 µM | TGI (SK-MEL-28 melanoma): 7.55 µM | TGI (SF-295 CNS): 14.4 µM | TGI (CCRF-CEM leukemia): 0.829 µM | TGI (OVCAR-8 ovarian): 11.5 µM | TGI (SN12C renal): 6.29 µM | TGI (NCI-H226 lung): 26.7 µM | TGI (786-0 renal): 4.98 µM | TGI (K-562 leukemia): 8.11 µM | TGI (OVCAR-3 ovarian): 2.75 µM | TGI (NCI-H522 lung): 2.08 µM | TGI (HCT-15 colon): 4.42 µM | TGI (PC-3 prostate): 13 µM | TGI (SK-MEL-2 melanoma): 13.8 µM | TGI (COLO 205 colon): 5.31 µM | TGI (CAKI-1 renal): 7.13 µM | TGI (MCF7 breast): 3.16 µM | TGI (HL-60(TB) leukemia): 3.67 µM | TGI (RPMI-8226 leukemia): 1.33 µM | TGI (MDA-MB-435): 3.9 µM | TGI (HOP-92 NSCLC): 3.92 µM | TGI (LOX IMVI melanoma): 3.05 µM | TGI (RXF 393 renal): 11 µM | TGI (MDA-MB-231 breast): 10.9 µM | TGI (BT-549 breast): 16.2 µM | TGI (TK-10 renal): 13.3 µM | TGI (OVCAR-4 ovarian): 9.14 µM | TGI (NCI-H23 lung): 7.12 µM | TGI (SK-MEL-5 melanoma): 21.6 µM | TGI (SF-268 CNS): 7.25 µM | TGI (MALME-3M melanoma): 4.01 µM | TGI (HCT-116 colon): 2.88 µM | TGI (SNB-75 CNS): 11.5 µM | TGI (UACC-257 melanoma): 8.71 µM | TGI (SK-OV-3 ovarian): 11.4 µM | TGI (KM12 colon): 2.87 µM | TGI (NCI-H460 lung): 9.55 µM | TGI (HOP-62 NSCLC): 5.29 µM | TGI (MDA-N): 13.3 µM | TGI (ACHN renal): 5.55 µM | TGI (HCC-2998 colon): 6.69 µM | TGI (HS 578T breast): > 39 µM | TGI (SF-539 CNS): 7.9 µM | TGI (SR leukemia): 1.95 µM | TGI (M14 melanoma): 7.19 µM | TGI (SNB-19 CNS): 19.6 µM
